Data taken from PMC11090936, “The leukemia inhibitory factor regulates fibroblast growth factor receptor 4 transcription in gastric cancer” (Cellular Oncology, 2023).

Molecular target: T1, LIFR (leukemia inhibitory factor receptor) (Homo sapiens, UniProt P42702)
T1 construct: with LIF
Test: cell-free AlphaScreen, inhibition of LIF/LIFR binding

T1 sequence (P42702 45-1097): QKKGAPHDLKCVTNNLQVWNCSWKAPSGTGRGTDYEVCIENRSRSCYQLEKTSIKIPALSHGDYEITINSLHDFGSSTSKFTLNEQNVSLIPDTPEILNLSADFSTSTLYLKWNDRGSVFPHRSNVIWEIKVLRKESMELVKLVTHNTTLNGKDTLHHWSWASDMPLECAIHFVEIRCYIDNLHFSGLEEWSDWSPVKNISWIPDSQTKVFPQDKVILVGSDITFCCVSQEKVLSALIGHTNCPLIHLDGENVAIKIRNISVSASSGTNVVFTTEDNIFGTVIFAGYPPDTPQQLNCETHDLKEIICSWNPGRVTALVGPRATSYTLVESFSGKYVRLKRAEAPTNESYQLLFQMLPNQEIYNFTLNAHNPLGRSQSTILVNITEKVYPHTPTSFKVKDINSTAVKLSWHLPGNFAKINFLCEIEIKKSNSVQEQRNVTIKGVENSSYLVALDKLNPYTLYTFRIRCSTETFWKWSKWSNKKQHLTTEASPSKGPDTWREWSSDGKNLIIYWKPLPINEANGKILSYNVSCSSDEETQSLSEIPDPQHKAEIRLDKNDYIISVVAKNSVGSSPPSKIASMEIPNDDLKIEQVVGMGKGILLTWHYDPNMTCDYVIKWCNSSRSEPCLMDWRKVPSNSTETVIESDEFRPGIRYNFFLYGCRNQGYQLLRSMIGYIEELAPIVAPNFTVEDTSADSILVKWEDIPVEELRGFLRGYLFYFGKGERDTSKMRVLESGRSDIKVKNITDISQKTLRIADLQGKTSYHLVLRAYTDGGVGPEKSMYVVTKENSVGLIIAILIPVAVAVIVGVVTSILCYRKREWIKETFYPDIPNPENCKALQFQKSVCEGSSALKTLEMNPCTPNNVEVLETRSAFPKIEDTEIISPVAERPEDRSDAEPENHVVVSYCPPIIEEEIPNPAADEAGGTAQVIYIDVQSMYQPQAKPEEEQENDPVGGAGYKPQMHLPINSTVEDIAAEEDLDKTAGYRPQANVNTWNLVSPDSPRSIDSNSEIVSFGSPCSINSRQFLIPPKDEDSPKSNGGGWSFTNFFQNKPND
T1 sequence (P15018 23-202 partner): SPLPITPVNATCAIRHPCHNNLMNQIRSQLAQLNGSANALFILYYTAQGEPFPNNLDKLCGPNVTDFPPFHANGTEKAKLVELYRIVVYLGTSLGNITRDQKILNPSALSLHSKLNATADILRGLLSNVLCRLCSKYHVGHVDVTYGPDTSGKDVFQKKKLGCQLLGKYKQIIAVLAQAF

IC50: 21.9 ± 2.16 µM
SMILES: C=CC[C@]1(O)CCC2C3CCC4=CC(=O)CCC4=C3[C@@H](c3ccc(-c4ccccc4)cc3)C[C@@]21C (stereo partly shown) [LRI-201]
